In ChEMBL document CHEMBL1201862, “PubChem BioAssay data set” (2004):
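Compound exposure: 48 hours, 5 concentrations, 96-well plates. GI50: concentration for 50% inhibition of growth.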 The source made the active and inactive calls. No stated cut-off is given here; in the data, active = GI50 up to about 1.1 µM and inactive = higher.

Columns and labels:
Experiment in all cases: inhibition of tumour cell growth, NCI panel, 48 h
[1] = system: HOP-62
[2] = system: CCRF-CEM
[3] = system: UACC-257
[4] = system: SF-295
[5] = system: A498
[6] = system: MOLT-4
[7] = system: HCC 2998
[8] = system: TK-10
[9] = system: HCT-15
[10] = system: COLO 205
[11] = system: MDA-N
[12] = system: OVCAR-3
[13] = system: K562
[14] = system: MCF7
[15] = system: SN12C
[16] = system: NCI/ADR-RES
[17] = system: SK-MEL-5
[18] = system: NCI-H522
[19] = system: Malme-3M

Row | Structure (SMILES) | GI50 [1] | GI50 [2] | GI50 [3] | GI50 [4] | GI50 [5] | GI50 [6] | GI50 [7] | GI50 [8] | GI50 [9] [µM] | GI50 [10] | GI50 [11] | GI50 [12] | GI50 [13] | GI50 [14] | GI50 [15] | GI50 [16] | GI50 [17] | GI50 [18] | GI50 [19]
1 | Cc1cn(CCCCCOC(=O)NC(CCCNC(N)=O)C(=O)O)c(=O)[nH]c1=O (stereo not drawn) | > 100 µM (inactive) | > 100 µM (inactive) | > 100 µM (inactive) | > 100 µM (inactive) | > 100 µM (inactive) | > 100 µM (inactive) | > 100 µM (inactive) | > 100 µM (inactive) | > 100 | > 100 µM (inactive) | > 100 µM (inactive) | > 100 µM (inactive) | > 100 µM (inactive) | > 100 µM (inactive) | > 100 µM (inactive) | > 100 µM (inactive) |  |  | 
2 | CCOC(=O)/C=C/CCC(C)(C)COC(C)=O | > 10 µM (inactive) | > 10 µM (inactive) | > 10 µM (inactive) | > 10 µM (inactive) |  | > 10 µM (inactive) | > 10 µM (inactive) | > 10 µM (inactive) | > 10 | > 10 µM (inactive) | > 10 µM (inactive) | > 10 µM (inactive) | > 10 µM (inactive) | > 10 µM (inactive) | > 10 µM (inactive) | > 10 µM (inactive) | > 10 µM (inactive) | > 10 µM (inactive) | 
3 | Cc1ccc(CC[PH](=O)CCc2ccc(C)nc2)cn1 | > 100 µM (inactive) | > 100 µM (inactive) | > 100 µM (inactive) | > 100 µM (inactive) |  | > 100 µM (inactive) | > 100 µM (inactive) | > 100 µM (inactive) | > 100 | > 100 µM (inactive) | > 100 µM (inactive) | > 100 µM (inactive) | > 100 µM (inactive) | > 100 µM (inactive) | > 100 µM (inactive) | > 100 µM (inactive) | > 100 µM (inactive) | > 100 µM (inactive) | > 100 µM (inactive)
4 | COC(=O)C1(c2cc3ccccc3n2S(=O)(=O)c2ccccc2)CC2C=CC1NC2 (stereo not drawn) | 1.66 µM (inactive) | 0.735 µM (active) | 2.22 µM (inactive) | 2.91 µM (inactive) | 3.09 µM (inactive) | 1.62 µM (inactive) | 1.98 µM (inactive) | 2.28 µM (inactive) | 1.75 | 2.17 µM (inactive) | 2.13 µM (inactive) | 2.29 µM (inactive) | 1.77 µM (inactive) | 1.5 µM (inactive) | 2.08 µM (inactive) | 2.42 µM (inactive) | 6.12 µM (inactive) |  | 
5 | COc1ccc(-c2c3c(n(C4OC(COC(C)=O)C(OC(C)=O)C(OC(C)=O)C4OC(C)=O)c(=S)c2C#N)CCC3)cc1 (stereo not drawn) | > 100 µM (inactive) | > 100 µM (inactive) | > 100 µM (inactive) | > 100 µM (inactive) |  | > 100 µM (inactive) | > 100 µM (inactive) | > 100 µM (inactive) | > 100 | 86.9 µM (inactive) | > 100 µM (inactive) | > 100 µM (inactive) | > 100 µM (inactive) | > 100 µM (inactive) | 71.4 µM (inactive) | > 100 µM (inactive) | 38.8 µM (inactive) |  | > 100 µM (inactive)
6 | COc1cc2c3c(c1Oc1nnnn1-c1ccccc1)-c1c(ccc4c1OCO4)C[C@H]3N(C)CC2 | 60.5 µM (inactive) | 24.5 µM (inactive) | 20.5 µM (inactive) | 32.2 µM (inactive) |  | 35.7 µM (inactive) | 20.7 µM (inactive) | 75.5 µM (inactive) | 21.6 | 32.2 µM (inactive) | 21.9 µM (inactive) | 37.4 µM (inactive) | 29.6 µM (inactive) |  | 32.4 µM (inactive) | 35.7 µM (inactive) | 29.5 µM (inactive) | 36.1 µM (inactive) | 18.2 µM (inactive)
7 | COc1ccc(C[C@H]2COC(=O)[C@@H]2Cc2ccc(Br)cc2)cc1OC | 33.6 µM (inactive) | 18.9 µM (inactive) | 11.5 µM (inactive) | 14.5 µM (inactive) |  | 13 µM (inactive) | 28.3 µM (inactive) | 28.6 µM (inactive) | 17.3 | 21.2 µM (inactive) | 27.7 µM (inactive) | 15.2 µM (inactive) | 11.7 µM (inactive) | 16.6 µM (inactive) | 29.7 µM (inactive) | 10.7 µM (inactive) | 5.06 µM (inactive) | 13.7 µM (inactive) | 25.4 µM (inactive)
8 | ClCc1nc2cc(Cl)ccc2o1 | 2.27 µM (inactive) | 1.96 µM (inactive) | 9.16 µM (inactive) | 20.3 µM (inactive) |  | 2.19 µM (inactive) | 2.26 µM (inactive) | 2.83 µM (inactive) | 3.39 | 2.65 µM (inactive) | 5.71 µM (inactive) | 1.85 µM (inactive) | 2.56 µM (inactive) | 2.47 µM (inactive) | 6.53 µM (inactive) | 20.3 µM (inactive) | 11.9 µM (inactive) | 1.6 µM (inactive) | 11.5 µM (inactive)
